# From article PMC7346179, “Fe Porphyrin-Based SOD Mimic and Redox-Active Compound, (OH)FeTnHex-2-PyP^4+, in a Rodent Ischemic Stroke (MCAO) Model: Efficacy and Pharmacokinetics as Compared to Its Mn Analogue, (H2O)MnTnHex-2-PyP^5+” (Antioxidants, 2020)
# Where “and” joins values, the source holds several entries; their conditions need not be identical. Equal values may be shown once.
# Legend:
# rat MCAO stroke model = assay: 7-day rat MCAO efficacy study; assay type: in vivo, rats; conditions: 0.225 mg/kg twice per day 7 days
# Method: The 7-day rat MCAO study was done as described in [9]. The 250–275 g Wistar rats were used as another species is a requirement for preclinical stroke research. The duration of the right MCAO was 90 min. […] The first dose was given IV slowly via the […] at 5 min after ischemia/reperfusion. The following doses were given SC. At day 7 post-injury, a person blinded to the treatment groups assessed the neurological deficit and then brains were harvested for infarct volume measurements.
# mice [1] = conditions: cited from earlier work
# mice [2] = conditions: mouse, in vivo, cited from earlier work
# [3] = 7-day PK study in healthy rats; assay type: in vivo
# Method: Samples were prepared as described in [10] with modifications to accommodate the small tissue sizes and enhance the detection sensitivity. Quantitative liquid chromatography electrospray-ionization tandem mass spectrometry (LCMS/MS) analysis was performed on a Shimadzu 20A series HPLC (LC)-Applied Biosystems/MDS Sciex API 3200 QTrap or API 4000 QTrap tandem-mass spectrometer (MS/MS) as described earlier. The use of heptafluorobutyric acid (HFBA) mobile phase modifier as an ion-pairing agent increases the overall lipophilicity and volatility, which increases the retention and ionization efficiency of the analytes, affording an abundance of HFBA-associated ions. […] (OH)FeTnBuOE-2-PyP^4+ was prepared as described for other Fe(III) N-alkylpyridylporphyrins and analogous (H2O)MnTnBuOE-2-PyP^5+ [13, 16]. The solvents employed were: A = 95:5 H2O:MeCN (0.1% HFBA); B = MeCN (0.1% HFBA). […] With the chosen solvent system, all four atropoisomers collapsed into a single peak, enhancing the sensitivity of the method to as low as 0.5 nM (nanomoles per L of tissue homogenate). Analyses were performed using a Phenomenex Luna C18 guard cartridge (ID × L, 2 × 4 mm) only. […] Their structures are also shown. […] The response was calculated as the ratio between the standard peak area and the internal standard peak area. We conducted a 7-day rat PK study under conditions identical to those that afforded the therapeutic efficacy of MnTnHex-2-PyP^5+ in an earlier study. […] Afterwards, blood/plasma samples were collected before injection and at 2 h after 24 h-injections (every second injection). Liver and brains were taken for analysis 12 h after the last injection. Three rats were used per compound. After the single (first) SC injection, we obtained a prototypical PK profile observed in the case of all Mn(III) ortho […] In contrast, although similarly absorbed after SC injection, the […] Our understanding is that the “elimination” process is actually a fast distribution/retention into/by the liver, kidney, and spleen, a multi-compartmental process responsible for early decay of the plasma concentration, observed for all Mn porphyrin analogs investigated.
# [4] = healthy rats, SC 0.225 mg/kg BID 7 days, 12 h after last injection
# [5] = healthy rats, SC 0.225 mg/kg BID 7 days, WinNonlin simulation
substance,measurement,setting,value
monohydroxo Fe(III) meso-tetrakis(N-n-hexylpyridinium-2yl)porphyrin [FeHex],"p, cortex infarct volume vs vehicle",rat MCAO stroke model,0.48
same,"p, neuroscore vs vehicle",rat MCAO stroke model,0.28
same,"p, subcortex infarct volume vs vehicle",rat MCAO stroke model,0.11
same,"p, total infarct volume vs vehicle",rat MCAO stroke model,0.31
same,neurological deficit (neuroscore and infarct volume),"rat MCAO stroke model; first dose IV, then SC","only slightly, but insignificantly, improved"
same,toxicity to mice relative to MnHex,mice [1],less toxic to mice
same,toxicity / death of mice,"mice [1]; mice, 5 mg/kg IP injection",no toxicity
same,blood pressure drop,"mice [2]; ip, 10 mg/kg",does not
same,arterial hypotension in experimental animals,mice [2],does not cause arterial hypotension
same,plasma exposure (AUC) relative to MnHex,[3]; 7-day twice-daily treatment of rats,more than 2 fold
same,brain concentration at end of 7-day treatment,[3]; [4],24 nM
same,end-of-treatment 7-day liver tissue level,[3]; [4],0.04 µM
same,average plasma concentration (Caver),[3]; [5],160 nM
same,plasma AUC,[3]; [5],26.9 µM·h
same,Cmax,"[3]; healthy rats, SC 0.225 mg/kg BID 7 days, WinNonlin simulation, read-out: Cmax at steady state, plasma",210 nM
same,elimination from plasma after single (first) SC injection,"[3]; healthy rats, SC 0.225 mg/kg, first 12 h",much slower elimination from the plasma
same,plasma half-life,"[3]; healthy rats, SC 0.225 mg/kg, estimated from simulation, 0.225 mg/kg",23 h and ~ 23 h
